Source: ChEMBL document CHEMBL3885881, “DrugMatrix”

Species: Rattus norvegicus
Test: DrugMatrix - Regimen: Daily Repeat
Format: toxicity, organism-based, Sprague-Dawley
Design: regimen Daily Repeat, gender Male, age 6-8 weeks
Settings: in vivo, po, route oral GAVAGE, […]; for TOTAL PROTEIN / URIC ACID / ALANINE AMINOTRANSFERASE / ALBUMIN / ALKALINE PHOSPHATASE / ASPARTATE AMINOTRANSFERASE / BLOOD UREA NITROGEN / CARBON DIOXIDE / CHOLESTEROL / CREATINE PHOSPHOKINASE / CREATININE / GLUCOSE / LACTATE DEHYDROGENASE / LIPASE / TOTAL BILIRUBIN: tissue Plasma; for ABSOLUTE BASOPHIL / ABSOLUTE EOSINOPHIL / ABSOLUTE LYMPHOCYTE / ABSOLUTE MONOCYTE / ABSOLUTE SEGMENTED NEUTROPHIL / BASOPHIL / EOSINOPHIL / ERYTHROCYTE COUNT / HEMATOCRIT / HEMOGLOBIN / LEUKOCYTE COUNT / LYMPHOCYTE / MEAN CORPUSCULAR HEMOGLOBIN / MEAN CORPUSCULAR HEMOGLOBIN CONCENTRATION / MEAN CORPUSCULAR VOLUME / MONOCYTE / NEUTROPHIL / NUCLEATED RED BLOOD CELLS / PLATELET COUNT: tissue Blood
[1] = 32 mg/kg, 120 h, dose level M2, time 5 day
[2] = 64 mg/kg, 72 h, dose level High, time 3 day
[3] = 64 mg/kg, 120 h, dose level High, time 5 day
[4] = 72 h, dose 2.5 mg/Kg, dose level Low, time 3 day
[5] = 120 h, dose 2.5 mg/Kg, dose level Low, time 5 day

With `CC/C(=C(\c1ccccc1)c1ccc(OCCN(C)C)cc1)c1ccccc1` [TAMOXIFEN] the “TOTAL PROTEIN” value [1] was 6.4 G/DL, the “URIC ACID” value [1] was 2.17 mg/dL and the “ABSOLUTE BASOPHIL” value [2] was 0 CELLS/uL. For the same molecule, the “ABSOLUTE EOSINOPHIL” value [2] was 0 CELLS/uL, the “ABSOLUTE LYMPHOCYTE” value [2] was 5492.33 CELLS/uL and the “ABSOLUTE MONOCYTE” value [2] was 14 CELLS/uL. For the same molecule, the “ABSOLUTE SEGMENTED NEUTROPHIL” value [2] was 260.33 CELLS/uL, the BASOPHIL [2] was 0% and the EOSINOPHIL [2] was 0%. For the same molecule, the “ERYTHROCYTE COUNT” value [2] was 5.73 x10E6/uL, the HEMATOCRIT [2] was 35.43% and the HEMOGLOBIN [2] was 13.57 G/DL. The “LEUKOCYTE COUNT” value [2] was 5.77 x10E3/uL, the LYMPHOCYTE [2] was 94.67% and the “MEAN CORPUSCULAR HEMOGLOBIN” value [2] was 23.73 pg. The “MEAN CORPUSCULAR HEMOGLOBIN CONCENTRATION” value [2] was 38.3 G/DL, the “MEAN CORPUSCULAR VOLUME” value [2] was 62.03 fL and the MONOCYTE [2] was 0.33%. The NEUTROPHIL [2] was 5%, the “NUCLEATED RED BLOOD CELLS” value [2] was 0 /100WBC and the “PLATELET COUNT” value [2] was 879.67 x10E3/uL. The “ALANINE AMINOTRANSFERASE” value [2] was 151 u/L, the ALBUMIN [2] was 3.87 G/DL and the “ALKALINE PHOSPHATASE” value [2] was 492 u/L. For the same molecule, the “ASPARTATE AMINOTRANSFERASE” value [2] was 96.67 u/L, the “BLOOD UREA NITROGEN” value [2] was 10 mg/dL and the “CARBON DIOXIDE” value [2] was 30.33 mmol/L. The CHOLESTEROL [2] was 38.33 mg/dL, the “CREATINE PHOSPHOKINASE” value [2] was 356.33 u/L and the CREATININE [2] was 0.11 mg/dL. The GLUCOSE [2] was 148 mg/dL, the “LACTATE DEHYDROGENASE” value [2] was 98 u/L and the LIPASE [2] was 10.67 u/L. For the same molecule, the “TOTAL BILIRUBIN” value [2] was 0.1 mg/dL, the “TOTAL PROTEIN” value [2] was 5.77 G/DL and the “URIC ACID” value [2] was 0.43 mg/dL. The “ABSOLUTE BASOPHIL” value [3] was 0 CELLS/uL, the “ABSOLUTE EOSINOPHIL” value [3] was 0 CELLS/uL and the “ABSOLUTE LYMPHOCYTE” value [3] was 6999 CELLS/uL. For the same molecule, the “ABSOLUTE MONOCYTE” value [3] was 72.33 CELLS/uL, the “ABSOLUTE SEGMENTED NEUTROPHIL” value [3] was 495.33 CELLS/uL and the BASOPHIL [3] was 0%. The EOSINOPHIL [3] was 0%, the “ERYTHROCYTE COUNT” value [3] was 6.14 x10E6/uL and the HEMATOCRIT [3] was 38.5%. For the same molecule, the HEMOGLOBIN [3] was 14.9 G/DL, the “LEUKOCYTE COUNT” value [3] was 7.57 x10E3/uL and the LYMPHOCYTE [3] was 92.33%. For the same molecule, the “MEAN CORPUSCULAR HEMOGLOBIN” value [3] was 24.27 pg, the “MEAN CORPUSCULAR HEMOGLOBIN CONCENTRATION” value [3] was 38.7 G/DL and the “MEAN CORPUSCULAR VOLUME” value [3] was 62.63 fL. The MONOCYTE [3] was 1%, the NEUTROPHIL [3] was 6.67% and the “NUCLEATED RED BLOOD CELLS” value [3] was 0.33 /100WBC. For the same molecule, the “PLATELET COUNT” value [3] was 1000.33 x10E3/uL, the “ALANINE AMINOTRANSFERASE” value [3] was 226.33 u/L and the ALBUMIN [3] was 3.63 G/DL. The “ALKALINE PHOSPHATASE” value [3] was 346.67 u/L, the “ASPARTATE AMINOTRANSFERASE” value [3] was 140 u/L and the “BLOOD UREA NITROGEN” value [3] was 7.67 mg/dL. The “CARBON DIOXIDE” value [3] was 30 mmol/L, the CHOLESTEROL [3] was 43.33 mg/dL and the “CREATINE PHOSPHOKINASE” value [3] was 593 u/L. The CREATININE [3] was 0.12 mg/dL, the GLUCOSE [3] was 136.33 mg/dL and the “LACTATE DEHYDROGENASE” value [3] was 145.33 u/L. The LIPASE [3] was 10.33 u/L, the “TOTAL BILIRUBIN” value [3] was 0.1 mg/dL and the “TOTAL PROTEIN” value [3] was 5.3 G/DL. For the same molecule, the “URIC ACID” value [3] was 0.67 mg/dL, the “ABSOLUTE BASOPHIL” value [4] was 0 CELLS/uL and the “ABSOLUTE EOSINOPHIL” value [4] was 0 CELLS/uL. The “ABSOLUTE LYMPHOCYTE” value [4] was 5987.33 CELLS/uL, the “ABSOLUTE MONOCYTE” value [4] was 0 CELLS/uL and the “ABSOLUTE SEGMENTED NEUTROPHIL” value [4] was 346 CELLS/uL. For the same molecule, the BASOPHIL [4] was 0%, the EOSINOPHIL [4] was 0% and the “ERYTHROCYTE COUNT” value [4] was 5.38 x10E6/uL. The HEMATOCRIT [4] was 32.47%, the HEMOGLOBIN [4] was 12.63 G/DL and the “LEUKOCYTE COUNT” value [4] was 6.33 x10E3/uL. For the same molecule, the LYMPHOCYTE [4] was 94.33%, the “MEAN CORPUSCULAR HEMOGLOBIN” value [4] was 23.5 pg and the “MEAN CORPUSCULAR HEMOGLOBIN CONCENTRATION” value [4] was 38.9 G/DL. For the same molecule, the “MEAN CORPUSCULAR VOLUME” value [4] was 60.4 fL, the MONOCYTE [4] was 0% and the NEUTROPHIL [4] was 5.67%. For the same molecule, the “NUCLEATED RED BLOOD CELLS” value [4] was 0 /100WBC, the “PLATELET COUNT” value [4] was 919.67 x10E3/uL and the “ALANINE AMINOTRANSFERASE” value [4] was 63.33 u/L. For the same molecule, the ALBUMIN [4] was 3.8 G/DL, the “ALKALINE PHOSPHATASE” value [4] was 412.33 u/L and the “ASPARTATE AMINOTRANSFERASE” value [4] was 76.33 u/L. For the same molecule, the “BLOOD UREA NITROGEN” value [4] was 11 mg/dL, the “CARBON DIOXIDE” value [4] was 34 mmol/L and the CHOLESTEROL [4] was 44.33 mg/dL. For the same molecule, the “CREATINE PHOSPHOKINASE” value [4] was 193 u/L, the CREATININE [4] was 0.1 mg/dL and the GLUCOSE [4] was 160.67 mg/dL. The “LACTATE DEHYDROGENASE” value [4] was 89 u/L, the LIPASE [4] was 10 u/L and the “TOTAL BILIRUBIN” value [4] was 0.13 mg/dL. The “TOTAL PROTEIN” value [4] was 5.67 G/DL, the “URIC ACID” value [4] was 0.57 mg/dL and the “ABSOLUTE BASOPHIL” value [5] was 0 CELLS/uL. The “ABSOLUTE EOSINOPHIL” value [5] was 0 CELLS/uL, the “ABSOLUTE LYMPHOCYTE” value [5] was 7101.67 CELLS/uL and the “ABSOLUTE MONOCYTE” value [5] was 21.33 CELLS/uL. The “ABSOLUTE SEGMENTED NEUTROPHIL” value [5] was 443.67 CELLS/uL, the BASOPHIL [5] was 0% and the EOSINOPHIL [5] was 0%. For the same molecule, the “ERYTHROCYTE COUNT” value [5] was 5.73 x10E6/uL, the HEMATOCRIT [5] was 35.9% and the HEMOGLOBIN [5] was 14 G/DL. The “LEUKOCYTE COUNT” value [5] was 7.57 x10E3/uL, the LYMPHOCYTE [5] was 93.67% and the “MEAN CORPUSCULAR HEMOGLOBIN” value [5] was 24.43 pg. For the same molecule, the “MEAN CORPUSCULAR HEMOGLOBIN CONCENTRATION” value [5] was 39.07 G/DL, the “MEAN CORPUSCULAR VOLUME” value [5] was 62.63 fL and the MONOCYTE [5] was 0.33%. For the same molecule, the NEUTROPHIL [5] was 6%, the “NUCLEATED RED BLOOD CELLS” value [5] was 0.33 /100WBC and the “PLATELET COUNT” value [5] was 1179.33 x10E3/uL. The “ALANINE AMINOTRANSFERASE” value [5] was 95 u/L, the ALBUMIN [5] was 4.13 G/DL and the “ALKALINE PHOSPHATASE” value [5] was 534.33 u/L. For the same molecule, the “ASPARTATE AMINOTRANSFERASE” value [5] was 94.33 u/L, the “BLOOD UREA NITROGEN” value [5] was 11.33 mg/dL and the “CARBON DIOXIDE” value [5] was 31 mmol/L. The CHOLESTEROL [5] was 43 mg/dL, the “CREATINE PHOSPHOKINASE” value [5] was 303.67 u/L and the CREATININE [5] was 0.1 mg/dL. For the same molecule, the GLUCOSE [5] was 148.33 mg/dL, the “LACTATE DEHYDROGENASE” value [5] was 142.67 u/L and the LIPASE [5] was 10.67 u/L. For the same molecule, the “TOTAL BILIRUBIN” value [5] was 0.1 mg/dL, the “TOTAL PROTEIN” value [5] was 6 G/DL and the “URIC ACID” value [5] was 0.73 mg/dL.
